The values that follow are results of earlier work, collected in patent US6372423B1, “Method for stabilizing platelets” (Dade Behring Marburg GmbH, priority 1996, dated 2002).

Structures can show the parent of a compound that is named as a salt.

The conditions of the data set: intravenous administration of 0.8 mg per kg and hour.

As for `CCN(CCO)CCCC(C)Nc1ccnc2cc(Cl)ccc12` (stereo not shown) [hydroxychloroquine sulfate], the Toxicological assessment result is “toxicologically harmless”.
